The nature of assay [1]: Antisense effect in human 607B cells assessed as down-regulation of bcl2 expression at 100 nM after 48 hrs by Western blot analysis relative to control. Type of assay: functional. For orientation: Immunoblotting shows a protein as a band on a membrane.
Assay [2] relates to Nucleic Acid. The experiment in a line: Duplex stability of RNA counter strand assessed as melting temperature. Type of assay: nucleic-acid assay.
For assay [3], the system named is Nucleic Acid. As to the kind of experiment: Duplex stability of DNA counter strand assessed as melting temperature. Format: nucleic-acid assay.

The structures appear in SMILES notation.

A word on the Tm: it is the temperature at the midpoint of the melting transition. As for `Cc1cn([C@H]2C[C@H](OP(O)(=S)OC[C@H]3O[C@@H](n4ccc(N)nc4=O)[C@H](O)[C@@H]3OP(O)(=S)OC[C@H]3O[C@@H](n4cc(C)c(=O)[nH]c4=O)C[C@@H]3O)[C@@H](COP(O)(=S)O[C@H]3[C@@H](O)[C@H](n4ccc(N)nc4=O)O[C@@H]3COP(O)(=S)O[C@H]3[C@@H](O)[C@H](n4ccc(N)nc4=O)O[C@@H]3COP(O)(=S)O[C@H]3[C@@H](O)[C@H](n4ccc(N)nc4=O)O[C@@H]3COP(O)(=S)O[C@H]3[C@@H](O)[C@H](n4cnc5c(N)ncnc54)O[C@@H]3COP(O)(=S)O[C@H]3[C@@H](O)[C@H](n4cnc5c(=O)[nH]c(N)nc54)O[C@@H]3COP(O)(=S)O[C@H]3[C@@H](O)[C@H](n4ccc(N)nc4=O)O[C@@H]3COP(O)(=S)O[C@H]3[C@@H](O)[C@H](n4cnc5c(=O)[nH]c(N)nc54)O[C@@H]3COP(O)(=S)O[C@H]3C[C@H](n4cc(C)c(=O)[nH]c4=O)O[C@@H]3COP(O)(=S)O[C@H]3[C@@H](O)[C@H](n4cnc5c(=O)[nH]c(N)nc54)O[C@@H]3COP(O)(=S)O[C@H]3[C@@H](O)[C@H](n4ccc(N)nc4=O)O[C@@H]3COP(O)(=S)O[C@H]3[C@@H](O)[C@H](n4cnc5c(=O)[nH]c(N)nc54)O[C@@H]3COP(O)(=S)O[C@H]3[C@@H](O)[C@H](n4ccc(N)nc4=O)O[C@@H]3COP(O)(=S)O[C@H]3[C@@H](O)[C@H](n4ccc(N)nc4=O)O[C@@H]3COP(O)(=S)O[C@H]3[C@@H](O)[C@H](n4cnc5c(N)ncnc54)O[C@@H]3COP(O)(=S)O[C@H]3[C@@H](NCCCCNCCN)[C@H](n4ccc(=O)[nH]c4=O)O[C@@H]3CO)O2)c(=O)[nH]c1=O` (stereo partly specified), the Activity in assay [1] was determined as 57.6%. The Tm with Nucleic Acid [2] was 51.4 °C; in the assay on Nucleic Acid [3], 65.1 °C.
On the same counts, the results for `Cc1cn([C@H]2C[C@H](OP(O)(=S)OC[C@H]3O[C@@H](n4cnc5c(N)ncnc54)[C@H](O)[C@@H]3OP(O)(=S)OC[C@H]3O[C@@H](n4ccc(N)nc4=O)[C@H](O)[C@@H]3OP(O)(=S)OC[C@H]3O[C@@H](n4ccc(N)nc4=O)[C@H](O)[C@@H]3OP(O)(=S)OC[C@H]3O[C@@H](n4cnc5c(=O)[nH]c(N)nc54)[C@H](O)[C@@H]3OP(O)(=S)OC[C@H]3O[C@@H](n4ccc(N)nc4=O)[C@H](O)[C@@H]3OP(O)(=S)OC[C@H]3O[C@@H](n4cnc5c(=O)[nH]c(N)nc54)[C@H](O)[C@@H]3OP(O)(=S)OC[C@H]3O[C@@H](n4cc(C)c(=O)[nH]c4=O)C[C@@H]3OP(O)(=S)OC[C@H]3O[C@@H](n4cnc5c(=O)[nH]c(N)nc54)[C@H](O)[C@@H]3OP(O)(=S)OC[C@H]3O[C@@H](n4ccc(N)nc4=O)[C@H](O)[C@@H]3OP(O)(=S)OC[C@H]3O[C@@H](n4cnc5c(=O)[nH]c(N)nc54)[C@H](O)[C@@H]3OP(O)(=S)OC[C@H]3O[C@@H](n4cnc5c(N)ncnc54)[C@H](O)[C@@H]3OP(O)(=S)OC[C@H]3O[C@@H](n4ccc(N)nc4=O)[C@H](O)[C@@H]3OP(O)(=S)OC[C@H]3O[C@@H](n4ccc(N)nc4=O)[C@H](O)[C@@H]3OP(O)(=S)OC[C@H]3O[C@@H](n4ccc(N)nc4=O)[C@H](O)[C@@H]3OP(O)(=S)OC[C@H]3O[C@@H](n4cc(C)c(=O)[nH]c4=O)C[C@@H]3OP(O)(=S)OC[C@H]3O[C@@H](n4ccc(N)nc4=O)[C@H](O)[C@@H]3OP(O)(=S)OC[C@H]3O[C@@H](n4cc(C)c(=O)[nH]c4=O)C[C@@H]3O)[C@@H](CO)O2)c(=O)[nH]c1=O` (stereo partly specified) are 25%, 53.1 °C and 71.4 °C.
